Experimental findings from the supplement of paper PMC10307832 are described below.

Assay in all cases: relative viability (nuclei count vs DMSO), 5 days (fraction); higher = more cells survive
Compound in the test “TGX 221 + Pemetrexed”: CC1=CN2C(=O)C=C(N=C2C(=C1)C(C)NC3=CC=CC=C3)N4CCOCC4 [TGX 221] + Nc1nc2[nH]cc(CCc3ccc(C(=O)N[C@@H](CCC(=O)O)C(=O)O)cc3)c2c(=O)[nH]1 [Pemetrexed] (partner 0.2 µM)
In outline: (§1)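 A single step with final 0.05% Triton X-100, 1% formaldehyde and 1 ug/ml Hoechst fixed the cells and stained nuclei 5 days after treatment. Lung cancer cell lines in 1536-well plates had been treated by pin tool the day after seeding with one drug alone or a fixed anchor-drug dose plus five library-drug doses (not always all listed) in √10 steps, and nuclei were counted on 4× images. Relative viability is the ratio of nuclei in treated wells to nuclei in vehicle wells, taken as the median of duplicate plates.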

Compound in the test “TGX 221 + Palbociclib”: CC1=CN2C(=O)C=C(N=C2C(=C1)C(C)NC3=CC=CC=C3)N4CCOCC4 [TGX 221] + CC(=O)c1c(C)c2cnc(Nc3ccc(N4CCNCC4)cn3)nc2n(C2CCCC2)c1=O [Palbociclib] (partner 0.5 µM)
In outline:
as §1

Compound in the test “TGX 221 + Linsitinib”: CC1=CN2C(=O)C=C(N=C2C(=C1)C(C)NC3=CC=CC=C3)N4CCOCC4 [TGX 221] + C[C@]1(O)C[C@@H](c2nc(-c3ccc4ccc(-c5ccccc5)nc4c3)c3c(N)nccn32)C1 [Linsitinib] (partner 1 µM)
In outline: as §1

Compound in test [1]: C1=CC=C(C(=C1)C2=CC=C(C=C2)C3=CSC4=C3C(=C(C(=O)N4)C#N)O)O + C[C@]1(O)C[C@@H](c2nc(-c3ccc4ccc(-c5ccccc5)nc4c3)c3c(N)nccn32)C1 [Linsitinib] (partner 1 µM)
In outline: as §1

Consider NCI-H1792, for which the relative viability with TGX 221 + Pemetrexed (first compound 0.08 µM) was 0.795; with TGX 221 + Pemetrexed (first compound 0.253 µM), 0.695; in the test with TGX 221 + Pemetrexed (first compound 0.8 µM), 0.557; in the test with TGX 221 + Pemetrexed (first compound 2.53 µM), 0.549; with TGX 221 + Pemetrexed (first compound 8 µM), 0.802; with TGX 221 + Palbociclib (first compound 0.08 µM), 0.593. Besides, the relative viability in the test with TGX 221 + Palbociclib (first compound 0.253 µM) was 0.625; with TGX 221 + Palbociclib (first compound 0.8 µM), 0.654; with TGX 221 + Palbociclib (first compound 2.53 µM), 0.57; with TGX 221 + Palbociclib (first compound 8 µM), 0.582; with TGX 221 + Linsitinib (first compound 0.08 µM), 0.501; with TGX 221 + Linsitinib (first compound 0.253 µM), 0.553. In addition, the relative viability in the test with TGX 221 + Linsitinib (first compound 0.8 µM) was 0.361; with TGX 221 + Linsitinib (first compound 2.53 µM), 0.435; with TGX 221 + Linsitinib (first compound 8 µM), 0.326; in test [1] (first compound 0.253 µM), 0.436; in test [1] (first compound 0.8 µM) it was 0.542; in test [1] (first compound 2.53 µM), 0.474. For the same cell line, the relative viability in test [1] (first compound 8 µM) turned out to be 0.317.
